The text below walks through data of patent US20240189373A1, “BACTERIOPHAGE COMPOSITIONS FOR TREATING STAP[…]” (priority 2020, published 2024).

The subject of the assay is S. aureus strains. Nature of the assay: microbe, parasite or virus in culture. It counts as cell-based. As for the experimental part:
Grey boxes indicate lines on graph depicted in FIG. 5B. […] Vancomycin, 16 μg/mL; AP-SA02, 0.1 pg/mL.
FIG. 6A is data showing bacterial growth measured by turbidity (absorbance at 600 nm) in the presence of AP-SA02 and vancomycin in a checkerboard assay. Grey boxes show lines on graph depicted in FIG. 6B. […] Vancomycin, 2 μg/mL.
Standard therapy for subjects with a S. aureus infection includes vancomycin and daptomycin. Since subjects who receive AP-SA02 are likely to be on these therapies, the effect of AP-SA02 on these antibiotics and vice versa was assessed. Using the standard checkerboard assay, the minimum inhibitory concentration of each antimicrobial alone or in combination with each other, was used to calculate whether two antimicrobials are synergistic, antagonistic, or indifferent (Table 3).

A value given as a limit tells only on which side of the number the result lay.

In the case of `CN[C@H](CC(C)C)C(=O)N[C@H]1C(=O)N[C@@H](CC(N)=O)C(=O)N[C@H]2C(=O)N[C@H]3C(=O)N[C@H](C(=O)N[C@H](C(=O)O)c4cc(O)cc(O)c4-c4cc3ccc4O)[C@H](O)c3ccc(c(Cl)c3)Oc3cc2cc(c3O[C@@H]2O[C@H](CO)[C@@H](O)[C@H](O)[C@H]2O[C@H]2C[C@](C)(N)[C@H](O)[C@H](C)O2)Oc2ccc(cc2Cl)[C@H]1O` [vancomycin], the MIC (Staphylococcus aureus) was above 16 µg/mL. For the same compound, for the setting “changed from resistant or intermediate to the sensitive range”, the “breakpoint for vancomycin in the presence of phage” value lay within 0.5 to 2 µg/mL.
